# pKi: −log10 of the molar value.
# Biological target: T1, hCRTH2 (Homo sapiens, UniProt Q9Y5Y4)
# T1 construct: expressed in transfected cells; host or cells: HEK (human embryonic kidney) cells expressing hCRTH2; membrane preparation
# T1 sequence (Q9Y5Y4 1-395): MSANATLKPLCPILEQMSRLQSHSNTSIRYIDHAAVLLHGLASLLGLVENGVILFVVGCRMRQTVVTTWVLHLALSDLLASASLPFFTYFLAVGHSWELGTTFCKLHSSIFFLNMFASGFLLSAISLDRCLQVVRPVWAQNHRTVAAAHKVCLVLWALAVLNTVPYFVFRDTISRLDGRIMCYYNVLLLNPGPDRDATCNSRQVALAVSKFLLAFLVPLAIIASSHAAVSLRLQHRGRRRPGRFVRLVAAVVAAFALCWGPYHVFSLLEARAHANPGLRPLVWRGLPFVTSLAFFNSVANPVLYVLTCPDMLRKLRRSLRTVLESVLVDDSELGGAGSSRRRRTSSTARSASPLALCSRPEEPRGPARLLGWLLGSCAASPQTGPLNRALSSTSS
# Assay: Radioligand binding assay ([3H]PGD2 competition, HEK-hCRTH2 membranes)
# Settings: [3H]PGD2 binding, values in text
# How it was run: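 Displacement of 3.0 nM [3H]PGD2 from human CRTH2 expressed in HEK membranes was measured at room temperature over 60 min. Unlabelled PGD2 at 10 μM gave non-specific binding.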
row,Compound,pKi
1,"C[C@@H](CCc1nc2cc(C(=O)N[C@H](C)c3ccc(F)cc3)ccc2nc1-c1ccc(F)cc1)CC(=O)O [compound 438, (S)-5-(3-(4-fluorophenyl)-7-(((R)-1-(4-fluorophenyl)ethyl)carbamoyl)quinoxalin-2-yl)-3-methylpentanoic acid]",8.38

# Same assay, conditions: [3H]PGD2 competition, Table B
row,Compound,pKi
1,"O=C(O)CCCCc1nc2cc(C(=O)N3CCn4c(nnc4C(F)(F)F)C3)ccc2nc1-c1ccc(Cl)cc1 [compound 436, 5-(3-(4-chlorophenyl)-7-(3-(trifluoromethyl)-5,6,7,8-tetrahydro-[1,2,4]triazolo[4,3-a]pyrazine-7-carbonyl)quinoxalin-2-yl)pentanoic acid]",6.70 to 7.70
2,"C[C@H](CCc1nc2cc(C(=O)N[C@H](C)c3ccc(F)cc3)ccc2nc1-c1ccc(F)cc1)CC(=O)O [compound 437, (R)-5-(3-(4-fluorophenyl)-7-(((R)-1-(4-fluorophenyl)ethyl)carbamoyl)quinoxalin-2-yl)-3-methylpentanoic acid]",6.70 to 7.70
3,"C[C@@H](CCc1nc2cc(C(=O)N[C@H](C)c3ccc(F)cc3)ccc2nc1-c1ccc(F)cc1)CC(=O)O [compound 438, (S)-5-(3-(4-fluorophenyl)-7-(((R)-1-(4-fluorophenyl)ethyl)carbamoyl)quinoxalin-2-yl)-3-methylpentanoic acid]",7.70 to 8.68
4,"C[C@H](CCc1nc2cc(C(=O)N[C@@H]3CCCc4ccccc43)ccc2nc1-c1ccc(F)cc1)CC(=O)O [compound 439, (R)-5-(3-(4-fluorophenyl)-7-(((R)-1,2,3,4-tetrahydronaphthalen-1-yl)carbamoyl)quinoxalin-2-yl)-3-methylpentanoic acid]",7.70 to 8.68
5,"C[C@@H](CCc1nc2cc(C(=O)N[C@@H]3CCCc4ccccc43)ccc2nc1-c1ccc(F)cc1)CC(=O)O [compound 440, (S)-5-(3-(4-fluorophenyl)-7-(((R)-1,2,3,4-tetrahydronaphthalen-1-yl)carbamoyl)quinoxalin-2-yl)-3-methylpentanoic acid]",8.70 to 10.00
6,"C[C@H](CCc1nc2cc(C(=O)N[C@H](C)c3ccc(F)cc3)ccc2nc1-c1ccc(Cl)cc1)CC(=O)O [compound 441, (R)-5-(3-(4-chlorophenyl)-7-(((R)-1-(4-fluorophenyl)ethyl)carbamoyl)quinoxalin-2-yl)-3-methylpentanoic acid]",7.70 to 8.68
7,C[C@@H](CCc1nc2cc(C(=O)N[C@H](C)c3ccc(F)cc3)ccc2nc1-c1ccc(Cl)cc1)CC(=O)O [compound 442],8.70 to 10.00
8,"O=C(NCc1ccccc1)c1ccc2nc(-c3ccc(F)cc3)c(CCCC(F)(F)C(=O)O)nc2c1 [compound 443, 5-(7-(benzylcarbamoyl)-3-(4-fluorophenyl)quinoxalin-2-yl)-2,2-difluoropentanoic acid]",7.70 to 8.68
9,Cc1ccc(CNC(=O)c2ccc3nc(-c4ccccc4)c(CCCC(F)(F)C(=O)O)nc3c2)cc1 [compound 444],6.70 to 7.70
10,O=C(O)Cc1cc(F)cc(CCc2nc3cc(C(=O)N4CCN(c5ccccc5)CC4)ccc3nc2-c2ccc(Cl)cc2)c1 [compound 445],7.70 to 8.68
11,O=C(O)Cc1cc(F)cc(CCc2nc3cc(C(=O)NCc4ccc(Cl)cc4)ccc3nc2-c2ccc(Cl)cc2)c1 [compound 446],7.70 to 8.68
12,"CN(Cc1ccc(F)cc1)C(=O)c1ccc2nc(-c3ccc(Cl)cc3)c(CCc3cc(F)cc(CC(=O)O)c3)nc2c1 [compound 447, 2-(3-(2-(3-(4-chlorophenyl)-7-((4-fluorobenzyl)(methyl)carbamoyl)quinoxalin-2-yl)ethyl)-5-fluorophenyl)acetic acid]",8.70 to 10.00
13,"CN(Cc1ccccc1)C(=O)c1ccc2nc(-c3ccc(Cl)cc3)c(CCc3cc(F)cc(CC(=O)O)c3)nc2c1 [compound 448, 2-(3-(2-(7-(benzyl(methyl)carbamoyl)-3-(4-chlorophenyl)quinoxalin-2-yl)ethyl)-5-fluorophenyl) acetic acid]",8.70 to 10.00
14,C[C@@H](NC(=O)c1ccc2nc(-c3ccc(Cl)cc3)c(CCc3cc(F)cc(CC(=O)O)c3)nc2c1)c1ccc(F)cc1 [compound 449],7.70 to 8.68
15,"C[C@H](NC(=O)c1ccc2nc(-c3ccc(Cl)cc3)c(CCc3cc(F)cc(CC(=O)O)c3)nc2c1)c1ccc(F)cc1 [compound 450, (S)-2-(3-(2-(3-(4-chlorophenyl)-7-((1-(4-fluorophenyl)ethyl)carbamoyl)quinoxalin-2-yl)ethyl)-5-fluorophenyl)acetic acid]",7.70 to 8.68
16,"N#Cc1ccc(CNC(=O)c2ccc3nc(-c4ccc(Cl)cc4)c(CCc4cc(F)cc(CC(=O)O)c4)nc3c2)cc1 [compound 451, 2-(3-(2-(3-(4-chlorophenyl)-7-((4-cyanobenzyl)carbamoyl)quinoxalin-2-yl)ethyl)-5-fluorophenyl)acetio acid]",7.70 to 8.68

row,Compound,pKi
1,"O=C(O)Cc1cc(F)cc(CCc2nc3cc(C(=O)N4CC(c5ccc(F)c(F)c5)C4)ccc3nc2-c2ccc(Cl)cc2)c1 [compound 452, 2-(3-(2-(3-(4-chlorophenyl)-7-(3-(3,4-difluorophenyl)azetidine-l-carbonyl)quinoxalin-2-yl)ethyl)-5-fluorophenyl) aceticacid]",7.70 to 8.68
2,"CC(CCCc1nc2cc(C(=O)N[C@@H]3CCCc4ccccc43)ccc2nc1-c1ccccc1)C(=O)O (stereo partly drawn) [compound 453, 2-methyl-5-(3-phenyl-7-(((R)-1-yl)carbamoyl)quinoxalin-2-yl)pentanoic acid]",7.70 to 8.68
3,CC(CCCc1nc2cc(C(=O)N[C@@H]3CCCc4ccccc43)ccc2nc1-c1ccc(F)cc1)C(=O)O (stereo partly drawn) [compound 454],7.70 to 8.68
4,"CC(CCCc1nc2cc(C(=O)N[C@@H]3CCCc4cc(Cl)ccc43)ccc2nc1-c1ccc(F)cc1)C(=O)O (stereo partly drawn) [compound 455, 5-(7-(((R)-6-chloro-1,2,3,4-tetrahydronaphthalen-1-yl)carbamoyl)-3-(4-fluorophenyl)quinoxalin-2-yl)-2-methylpentanoic acid]",7.70 to 8.68
5,"CC(CCCc1nc2cc(C(=O)N[C@@H]3CCc4cc(Cl)ccc43)ccc2nc1-c1ccc(F)cc1)C(=O)O (stereo partly drawn) [compound 456, 5-(7-(((R)-5-chloro-2,3-dihydro-1H-inden-1-yl)carbamoyl)-3-(4-fluorophenyl)quinoxalin-2-yl)-2-methylpentanoic acid]",7.70 to 8.68
6,"CC(CCCc1nc2cc(C(=O)N[C@@H]3CCc4cc(F)ccc43)ccc2nc1-c1ccc(F)cc1)C(=O)O (stereo partly drawn) [compound 457, 5-(7-(((R)-5-fluoro-2,3-dihydro-1H-inden-1-yl)carbamoyl)-3-(4-fluorophenyl)quinoxalin-2-yl)-2-methylpentanoic acid]",8.70 to 10.00
7,"CC(CCCc1nc2cc(C(=O)N[C@@H]3CCCc4cc(Cl)ccc43)ccc2nc1-c1ccccc1)C(=O)O (stereo partly drawn) [compound 458, 5-(7-(((R)-6-chloro-1,2,3,4-tetrahydronaphthalen-1-yl)carbamoyl)-3-phenylquinoxalin-2-yl)-2-methylpentanoic acid]",7.70 to 8.68
8,"CC(CCCc1nc2cc(C(=O)N[C@@H]3CCCc4cc(F)ccc43)ccc2nc1-c1ccccc1)C(=O)O (stereo partly drawn) [compound 459, 5-(7-(((R)-6-fluoro-1,2,3,4-tetrahydronaphthalen-1-yl)carbamoyl)-3-phenylquinoxalin-2-yl)-2-methylpentanoic acid]",7.70 to 8.68
9,"CC(CCCc1nc2cc(C(=O)N[C@H](C)c3ccc(Cl)cc3)ccc2nc1-c1ccccc1)C(=O)O (stereo partly drawn) [compound 460, 5-(7-(((R)-1-(4-chlorophenyl)ethyl)carbamoyl)-3-3-phenylquinoxalin-2-yl)-2-methylpentanoic acid]",7.70 to 8.68
10,"CC(CCCc1nc2cc(C(=O)N[C@H](C)c3ccc(F)cc3)ccc2nc1-c1ccccc1)C(=O)O (stereo partly drawn) [compound 461, 5-(7-(((R)-1-(4-fluorophenyl)ethyl)carbamoyl)-3-phenylquinoxalin-2-yl)-2-methylpentanoic acid]",7.70 to 8.68
11,"CC(CCCc1nc2cc(C(=O)N3CCN(c4ccccc4)CC3)ccc2nc1-c1ccccc1)C(=O)O (stereo not drawn) [compound 462, 2-methyl-5-(3-phenyl-7-(4-phenylpiperazine-1-carbonyl)quinoxalin-2-yl)pentanoic acid]",7.70 to 8.68
12,"CC(CCCc1nc2cc(C(=O)N[C@@H]3C[C@H]3c3ccccc3)ccc2nc1-c1ccccc1)C(=O)O (stereo partly drawn) [compound 463, 2-methyl-5-(3-phenyl-7-(((1R,2S)-2-phenylcyclopropyl)carbamoyl)quinoxalin-2-yl) pentanoic acid]",7.70 to 8.68
13,"C[C@@H](NC(=O)c1ccc2nc(-c3ccccc3)c(CCCC(F)(F)C(=O)O)nc2c1)c1ccc(Cl)cc1 [compound 464, (R)-5-(7-((1-(4-chlorophenyl)ethyl)carbamoyl)-3-phenylquinoxalin-2-yl)-2,2-difluoropentanoic acid]",6.70 to 7.70
14,"O=C(N[C@@H]1CCCc2cc(F)ccc21)c1ccc2nc(-c3ccc(F)cc3)c(CCCC(F)(F)C(=O)O)nc2c1 [compound 465, (R)-2,2-difluoro-5-(7-((6-fluoro-1,2,3,4-tetrabydronaphthalen-1-yl)carbamoyl)-3-(4-fluorophenyl)quinoxalin-2-yl)pentanoic acid]",7.70 to 8.68
15,"O=C(N[C@@H]1CCCc2ccccc21)c1ccc2nc(-c3ccccc3)c(CCCC(F)(F)C(=O)O)nc2c1 [compound 466, (R)-2,2-difluoro-5-(3-phenyl-7-((1,2,3,4-tetahydronaphthalen-1-yl)carbamoyl)quinoxalin-2-yl)pentanoic acid]",7.70 to 8.68
16,"O=C(N[C@@H]1CCCc2cc(Cl)ccc21)c1ccc2nc(-c3ccccc3)c(CCCC(F)(F)C(=O)O)nc2c1 [compound 467, (R)-5-(7-((6-chloro-1,2,3,4-tetrahydronaphthalen-1-yl)carbamoyl)-3-phenylquinoxalin-2-yl)-2,2-difluoropentanoic acid]",7.70 to 8.68

# Source: US9469615B2, “Quinoxalines and AZA-quinoxalines as CRTH2 receptor modulators” (Merck Sharp & Dohme Corp., priority 2010, dated 2016)
